EC50 data for four molecules are collected here from US20100222269A1, “IMPROVED DERIVATIVES OF AMYLIN” (priority 2007, published 2010).

Starred links: 1 amine or outer side, 2 acyl side, 3 side chain; linkers in the order of their positions; H or OH if unused. Positions of bridges follow the written chain, without caps; N, C: chain ends. Non-standard residues stand in square brackets, D forms with d. Residues, ends and D or L forms follow the SMILES beside them. *: point of attachment. C20 diacid = O=C(O)CCCCCCCCCCCCCCCCCCC(=O)*; γGlu = O=C(O)[C@H](CCC(=O)[*:2])N[*:1]; AEEA = NCCOCCOCC(=O)O

T1 sequence (O60896 24-148): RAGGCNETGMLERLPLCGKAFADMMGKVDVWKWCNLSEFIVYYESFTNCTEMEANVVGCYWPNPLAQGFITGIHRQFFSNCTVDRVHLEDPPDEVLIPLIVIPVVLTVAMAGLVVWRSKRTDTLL
T1 sequence (P30988 25-474): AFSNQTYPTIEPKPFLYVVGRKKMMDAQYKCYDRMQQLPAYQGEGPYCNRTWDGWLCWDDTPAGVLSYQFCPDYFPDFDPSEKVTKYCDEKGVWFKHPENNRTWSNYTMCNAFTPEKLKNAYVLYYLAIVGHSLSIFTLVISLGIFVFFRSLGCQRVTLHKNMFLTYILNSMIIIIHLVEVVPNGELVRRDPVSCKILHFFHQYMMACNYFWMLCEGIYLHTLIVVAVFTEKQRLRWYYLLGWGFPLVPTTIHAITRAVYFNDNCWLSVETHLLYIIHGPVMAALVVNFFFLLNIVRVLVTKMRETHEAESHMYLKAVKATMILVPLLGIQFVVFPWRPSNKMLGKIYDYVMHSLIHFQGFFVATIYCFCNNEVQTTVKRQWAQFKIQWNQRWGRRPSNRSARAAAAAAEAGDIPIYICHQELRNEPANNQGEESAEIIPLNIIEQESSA

The test concerns the target T1, Amylin 3(a) receptor (human calcitonin receptor (CTa) with RAMP-3) (Homo sapiens, UniProt O60896+P30988).
T1 construct: expressed in transfected cells; host or cells: BHK570 (baby hamster kidney) cells, stably transfected, with CRE-luciferase reporter
The test is described as follows: Amylin luciferase assay (CRE-luciferase reporter in BHK Amylin 3(a)//CRE-luc cells). The class given is cell-based. To be noted: BHK570 cells with human calcitonin receptor (CTa), RAMP-3 and CRE-luciferase reporter; 4 hours incubation; read-out: Potency luciferase assay. The essentials: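 BHK570 cells stably expressing human calcitonin receptor (CTa), RAMP-3 and a CRE-luciferase reporter, about 20.000 cells/well, were exposed to standard or sample for 4 h at 37° C in phenol-red-free DMEM with 10% FBS and 10 mM Hepes pH 7,4. Luminescence was read after 30 min with LucLite at room temperature.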
Take `CC[C@H](C)[C@H](NC(=O)[C@@H]1CCCN1C(=O)CNC(=O)[C@H](Cc1ccccc1)NC(=O)[C@H](CC(N)=O)NC(=O)[C@H](CC(N)=O)NC(=O)[C@H](CO)NC(=O)[C@H](CO)NC(=O)[C@H](Cc1c[nH]cn1)NC(=O)[C@@H](NC(=O)[C@H](CC(C)C)NC(=O)[C@H](Cc1ccccc1)NC(=O)[C@H](CC(N)=O)NC(=O)[C@H](C)NC(=O)[C@H](CC(C)C)NC(=O)[C@H](CCCNC(=N)N)NC(=O)[C@H](CCC(N)=O)NC(=O)[C@@H](NC(=O)[C@H](C)NC(=O)[C@@H]1CSSC[C@H](NC(=O)[C@H](CCCCN)NC(=O)[C@H](CCCNC(=N)N)NC(=O)CC[C@H](NC(=O)CCCCCCCCCCCCCCCCCCC(=O)O)C(=O)O)C(=O)N[C@@H](CC(N)=O)C(=O)N[C@@H]([C@@H](C)O)C(=O)N[C@@H](C)C(=O)N[C@@H]([C@@H](C)O)C(=O)N1)[C@@H](C)O)C(C)C)C(=O)N[C@@H](CC(C)C)C(=O)N1CCC[C@H]1C(=O)N1CCC[C@H]1C(=O)N[C@H](C(=O)N[C@@H](CC(N)=O)C(=O)N[C@H](C(=O)NCC(=O)N[C@@H](CO)C(=O)N[C@@H](CC(N)=O)C(=O)N[C@H](C(=O)N[C@@H](Cc1ccc(O)cc1)C(N)=O)[C@@H](C)O)C(C)C)[C@@H](C)O` [Example 49, N-alpha-[(S)-4-carboxy-4-(19-carboxynonadecanoylamino)butyryl]-Arg-pramlintide (1-37)] ({C20 diacid-γGlu}-RKCNTATCATQRLANFLVHSSNNFGPILPPTNVGSNTY-NH2; disulfide 3-8; C-terminus assumed): the EC50 was found to be 200 pM.
As for `CC[C@H](C)[C@H](NC(=O)[C@@H]1CCCN1C(=O)CNC(=O)[C@H](Cc1ccccc1)NC(=O)[C@H](CC(N)=O)NC(=O)[C@H](CC(N)=O)NC(=O)[C@H](CO)NC(=O)[C@H](CO)NC(=O)[C@H](Cc1c[nH]cn1)NC(=O)[C@@H](NC(=O)[C@H](CC(C)C)NC(=O)[C@H](Cc1ccccc1)NC(=O)[C@H](CC(N)=O)NC(=O)[C@H](C)NC(=O)[C@H](CC(C)C)NC(=O)[C@H](CCCNC(=N)N)NC(=O)[C@H](CCC(N)=O)NC(=O)[C@@H](NC(=O)[C@H](C)NC(=O)[C@@H]1CSSC[C@H](NC(=O)[C@H](CCCCN)NC(=O)[C@H](CCCNC(=N)N)NC(=O)[C@H](CCCCN)NC(=O)[C@H](CCC(=O)O)NC(=O)CCCCCCCCCCCCCCCCCCC(=O)O)C(=O)N[C@@H](CC(N)=O)C(=O)N[C@@H]([C@@H](C)O)C(=O)N[C@@H](C)C(=O)N[C@@H]([C@@H](C)O)C(=O)N1)[C@@H](C)O)C(C)C)C(=O)N[C@@H](CC(C)C)C(=O)N1CCC[C@H]1C(=O)N1CCC[C@H]1C(=O)N[C@H](C(=O)N[C@@H](CC(N)=O)C(=O)N[C@H](C(=O)NCC(=O)N[C@@H](CO)C(=O)N[C@@H](CC(N)=O)C(=O)N[C@H](C(=O)N[C@@H](Cc1ccc(O)cc1)C(N)=O)[C@@H](C)O)C(C)C)[C@@H](C)O` [Example 50, N-alpha-(19-carboxynonadecanoyl)-Glu-Lys-Arg-pramlintide (1-37)] ({C20 diacid}-EKRKCNTATCATQRLANFLVHSSNNFGPILPPTNVGSNTY-NH2; disulfide 5-10), the figure is 80 pM.
As to `CC[C@H](C)[C@H](NC(=O)[C@@H]1CCCN1C(=O)CNC(=O)[C@H](Cc1ccccc1)NC(=O)[C@H](CC(N)=O)NC(=O)[C@H](CC(N)=O)NC(=O)[C@H](CO)NC(=O)[C@H](CO)NC(=O)[C@H](Cc1c[nH]cn1)NC(=O)[C@@H](NC(=O)[C@H](CC(C)C)NC(=O)[C@H](Cc1ccccc1)NC(=O)[C@H](CC(N)=O)NC(=O)[C@H](C)NC(=O)[C@H](CC(C)C)NC(=O)[C@H](CCCNC(=N)N)NC(=O)[C@H](CCC(N)=O)NC(=O)[C@@H](NC(=O)[C@H](C)NC(=O)[C@@H]1CSSC[C@H](NC(=O)[C@H](CCCNC(=N)N)NC(=O)[C@H](CCCCN)NC(=O)[C@H](CCC(=O)O)NC(=O)CCCCCCCCCCCCCCCCCCC(=O)O)C(=O)N[C@@H](CC(N)=O)C(=O)N[C@@H]([C@@H](C)O)C(=O)N[C@@H](C)C(=O)N[C@@H]([C@@H](C)O)C(=O)N1)[C@@H](C)O)C(C)C)C(=O)N[C@@H](CC(C)C)C(=O)N1CCC[C@H]1C(=O)N1CCC[C@H]1C(=O)N[C@H](C(=O)N[C@@H](CC(N)=O)C(=O)N[C@H](C(=O)NCC(=O)N[C@@H](CO)C(=O)N[C@@H](CC(N)=O)C(=O)N[C@H](C(=O)N[C@@H](Cc1ccc(O)cc1)C(N)=O)[C@@H](C)O)C(C)C)[C@@H](C)O` [Example 51, N-alpha-(19-carboxynonadecanoyl)-Glu-Lys-[Arg1]-pramlintide (1-37)] ({C20 diacid}-EKRCNTATCATQRLANFLVHSSNNFGPILPPTNVGSNTY-NH2; disulfide 4-9; C-terminus assumed), the EC50 was 70 pM.
As for “{C20 diacid}-EER[AEEA]ECNTATCATQRLANFLVHSSNNFGPILPPTNVGSNTY-NH2 (disulfide 6-11; C-terminus assumed) [Example 44, N-alpha-(2-{2-[2-((S)-2-{(S)-4-carboxy-2-[(S)-4-carboxy-2-(19-carboxynonadecanoylamino)butyrylamino]butyrylamino}-5-guanidinopentanoylamino)ethoxy]ethoxy}acetyl)-[Glu1]-pramlintide (1-37)]”, the figure is 400 pM.
